Data taken from US8378115B2, “Monomethine dyes” (Thermo Fisher Scientific (Milwaukee) LLC, priority 2007, dated 2013).

Columns and labels:
[1] = Absorption spectra of dye alone; format: physicochemical; settings: for ε: in M-1·cm-1 (unit assumed)
Description: (§1) Stock solutions (8 mM) of each dye were prepared by dissolving each compound in dimethylsulfoxide (DMSO). Stock dye solutions were diluted to a desired concentration in tris-EDTA (TE) buffer (10 mM Tris, 1 mM EDTA, pH 8.0) immediately prior to use.
[…] […] Optical densities were determined at the absorbance maxima and the extinction coefficients were calculated using Beer's law.

λDNA = test: Fluorescence enhancement of dye with λDNA; format: binding
Description: as §1
(§2) Stock solutions of λDNA and 40mer synthetic oligonucleotides (dsDNA and ssDNA), each at a concentration of 40 μM, were prepared in TE buffer. All DNA concentrations described are in base pairs of nucleotides. The DNA stock solutions were diluted to a desired concentration in TE buffer before being mixed with diluted dye solutions.
(§3) Fluorescence enhancement measurements of each dye were obtained by incubating dyes with λDNA, 40mer dsDNA, or 40mer ssDNA at a final concentration of 0.8 μM dye and 3.2 μM DNA for one minute. Fluorescence scans of the samples were performed with excitation wavelengths corresponding to the absorption maxima of the dyes. The resulting fluorescence intensities were compared to fluorescence intensities of Thiazole Orange (TO) and a compound equivalent to SYBR Green without the side chain (V02-06101), shown below,
(§4) [drawing 15] binding to λDNA, 40mer dsDNA, or 40mer ssDNA at a final concentration of 0.8 μM TO and 3.2 μM DNA for one minute, the same as for the tested dyes. The discrimination ratio between dsDNA and ssDNA was calculated by comparing the fluorescence intensities.

40mer dsDNA [2] = test: Fluorescence enhancement of dye with 40mer dsDNA; format: binding
40mer dsDNA [3] = test: Fluorescence enhancement of dye with 40mer dsDNA; format: binding; remark: listed apart in the source
Description: as §1, §2, §3, §4

[4] = 0.8 μM dye, 3.2 μM DNA, one minute

λex ([1]; Ethanol): 520 nm
ε ([1]; Ethanol): 58,000
λex ([1]; TE Buffer, 8 μM dye): 499 nm
ε ([1]; TE Buffer, 8 μM dye): 20,444
SMILES: CCN(CC)c1ccc2c(/C=C3\Oc4ccccc4N3CC)cc(-c3ccccc3)[o+]c2c1 [Dye V02-06188]
Fluorescence relative to TO (λDNA; [4]): 0.6
Fluorescence λ DNA/ssDNA (λDNA; [4]): 1.5
Ratio λ DNA/ss (λDNA; fluorescence λ DNA vs ss-DNA): 2
Relative Fluorescent Intensity (λDNA; λ DNA, TO = 1.0): 0.6
binding preference dsDNA over ssRNA (40mer dsDNA [2]): slight preference for binding to dsDNA over binding to ssRNA
Relative Fluorescent Intensity (40mer dsDNA [3]; 40-mer ds-DNA, TO = 1.0): 0.6
Ratio ds/ss (40mer dsDNA [3]; fluorescence 40-mer ds-DNA vs ss-DNA): 1.5
